Measurements: patent US7241763B2, “3-furanyl analogs of toxoflavine as kinase inhibitors” (priority 2002, dated 2007)
Where two headings read alike, the source gives them in different places.

Tests used:
AKT3 [1] = target: T1, AKT3 (Homo sapiens, UniProt Q9Y243); assay: Cellular inhibition of AKT3 using an ELISA (AKT cel, Ex. C6); assay type: cell-based; design: endogenous in cells; host or cells: MDA-MB 231
Description: Cellular Inhibition of AKT3 using an ELISA
The human breast adenocarcinoma cell line (MDA-MB 231) was used in an phosphospecific antibody cell ELISA (PACE) to assess the inhibitory effect of the compounds on AKT3 mediated phosphorylation of mitogen-activated protein kinase (MAPK). In the experiments the MDA-MB 231 cells were serum starved for 24 hours (5% CO2; 37° C.). Subsequently, the cells are incubated at room temperature for 2 hours with 20 μM (in serum free medium) of the phosphatidylinositol 3-kinase inhibitor Ly294002 (Alexis, San Diego, Calif.) prior to the incubation for 30 minutes with the compounds at a final concentration ranging from 1 nM to 3 μM. After fixation (with 4.5% formaldehyde) for 20 minutes and washing with PBS (0.1M) the cells were successively incubated with for 5 minutes with 0.1% Triton X-100 in PBS, for 20 minutes with 0.6% H2O2 and 1 hour with a 2% BSA solution as blocking buffer. […] The OD (490–655 nm) reflected the amount of phosphorylated MAPK and the pIC50 of the compounds was based on their effect with respect to blanco (0.1% DMSO) or an internal reference compound treatment.

A2780 cell = assay: Cytotox/survival of A2780 cell after 3 days; assay type: cell-based; conditions: Homo sapiens, read-out: Cytotox/survival of A2780 cell after 3 days - pIC50 values (converted)
Description: In an alternative assay, the growth inhibitory effect of the compounds was tested on the ovarian carcinoma cell line A2780 using art known cytotoxicity assays such as LIVE/DEAD (Molecular Probes) or MTT.

AKT3 [2] = target: T1, AKT3; assay: In vitro inhibition of AKT3 using a filter assay (AKT3 pep., Ex. C3); assay type: biochemical
Description: In Vitro Inhibition of AKT3 using a Filter Assay
In the present AKT3 filter assay, a kinase substrate consisting of a fragment of histone H2B, is incubated with the aforementioned protein in the presence of (^33P) radiolabeled ATP. The (^33P)phosporylated substrate binds to a phosphocellulose cation exchange filter, that can easily be removed from the incubation mixture and counted using a microplate scintillation counter.
AKT3 filter assays were performed at 25° C. for 3 hrs in the presence of 25 mM Hepes, pH 7.0, containing 15 mM MgCl2, 1 mM DTT Each assay was performed in a 100 μl reaction volume containing 111 nM AKT3 (diluted in 25 mM Hepes, pH 7.0, containing 15 mM MgCl2, 1 mM DTT) and the 2.5 μM Histone H2B and 2 nM ATP-P^32. The reaction was terminated by addition of 100 μl 75 mM H3PO4, 90 μl of the assay mixture was filtered through Phosphocellulose cation exchange paper. After five times washing with […] H3PO4, the filterpaper was counting in a microtiterplate scintillation counter.

cdk4 = cdk4 (Homo sapiens, UniProt P11802); assay: In vitro inhibition of cdk4 using a scintillant proximity assay (CDK4 SPA, Ex. C1); assay type: biochemical
Description: In Vitro Inhibition of cdk4 using a Scintillant Proximity Assay
The scintillant proximity assay (SPA) is in general described in U.S. Pat. No. 4,568,649 (Amersham Pharmacia Biotech). In the present cdk4 SPA kinase reaction assay, a kinase substrate consisting of a fragment of the restinoblastoma protein (pRb) tagged with […] (GST), is incubated with the aforementioned protein in the presence of (^33P) radiolabeled ATP. (^33P) phosporylation of the substrate is subsequently measured as light energy emitted using glutathione-coated SPA beads (Amersham Pharmacia Biotech) by trapping and quantifying the binding of the GST tagged and radiolabeled restinoblastoma protein.
The CDK4 SPA kinase reaction is performed at room temperature for 30 minutes in a 96-well microtiter plate. For each of the tested compounds a full dose response —10^−5M to 3.10^−9M—has been performed. Flavopiridol was used as reference compound. The 100 μl reaction volume contains 50 mM Hepes, 10 mM NaF, 10 mM MgCl2, 1 mM Na3VO4 pH 7.5, 1.5 μg CDK4-cell lysate/well, 0.2 μM unlabeled ATP, 1.7 μg/well GST-pRb, 1.7 nM AT^33P and 1 μl of a DMSO solution. The reaction is stopped by diluting the reaction mixture ½ with 0.1 mM Na2EDTA, 0.1 mM non-labeled ATP, 0.05% Triton-X-100 and 10 mg/ml glutathion coated beads in PBS. The microtiterplates are centrifuges at 900 rpm for 10 minutes and the amount of phosphorylated (^33P) pRb is determined by counting (1 min/well) in a microtiterplate scintillation counter.

CDC25B = target: T2, CDC25B (Homo sapiens, UniProt P30305); assay: In vitro inhibition of CDC25B using the fluorogenic substrate 3-OMFP (CDC25B WT, Ex. C5); assay type: biochemical
T2 sequence (P30305 1-580): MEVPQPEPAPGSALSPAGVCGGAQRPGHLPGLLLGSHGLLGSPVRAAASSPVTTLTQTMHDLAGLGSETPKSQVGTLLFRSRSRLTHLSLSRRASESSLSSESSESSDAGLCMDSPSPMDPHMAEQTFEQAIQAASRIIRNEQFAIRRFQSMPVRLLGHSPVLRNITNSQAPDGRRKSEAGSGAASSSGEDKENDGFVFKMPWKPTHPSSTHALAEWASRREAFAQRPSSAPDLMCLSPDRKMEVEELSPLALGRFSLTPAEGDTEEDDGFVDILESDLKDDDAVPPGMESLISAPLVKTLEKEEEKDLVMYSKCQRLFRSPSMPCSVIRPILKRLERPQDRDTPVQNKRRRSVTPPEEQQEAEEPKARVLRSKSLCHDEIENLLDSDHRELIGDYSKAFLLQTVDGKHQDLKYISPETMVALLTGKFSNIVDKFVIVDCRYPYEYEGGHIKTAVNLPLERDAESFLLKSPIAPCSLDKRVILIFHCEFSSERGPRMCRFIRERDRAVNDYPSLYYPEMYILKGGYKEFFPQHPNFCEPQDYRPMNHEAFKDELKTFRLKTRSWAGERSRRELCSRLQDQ
Description: In Vitro Inhibition of CDC25B using the Fluorogenic Substrate 3-OMFP
CDC25B phosphatase activity is assessed using the fluorogenic substrate 3-O-methyl-flurorescein-phosphate (3-OMFP). The phosphatase-reaction is performed for 1 hour at room temperature in a black microtiter plate in a volume of 50 μl. The reaction mixture contains 4 μg/mlCDC25B, 15 μM (3-OMFP), 15 mM Tris, 50 mM NaCl, 1 mM DTT, 1 mM Na2EDTA at pH 8.0 and 0.1% DMSO solution at 10^−5 M and the hits are tested in the same conditions in a full dose/response from 10^−5, 3.10^−6, 10^−6 and 3.10^−7 M. The enzymatic activity is determined by measuring the fluorescent signal at 485 nm (ex.) and 538 (em.).

[3] = MDA-MB 231 cells, phosphorylated MAPK ELISA, 30 minutes with compound, read-out: AKT cel (Ex. C6): pIC50 values (converted)
[4] = 72 h, A2780 ovarian carcinoma cell line, 3 days
[5] = histone H2B substrate, filter assay, 25° C. 3 hrs, read-out: AKT3 pep. (Ex. C3): pIC50 values (converted)
[6] = GST-pRb substrate, 33P-ATP, room temperature 30 minutes, read-out: CDK4 SPA (Ex. C1): pIC50 values (converted)
[7] = 3-OMFP substrate, 1 hour room temperature, read-out: CDC25B WT (Ex. C5): pIC50 values (converted)

T1 sequence (Q9Y243 whole entry): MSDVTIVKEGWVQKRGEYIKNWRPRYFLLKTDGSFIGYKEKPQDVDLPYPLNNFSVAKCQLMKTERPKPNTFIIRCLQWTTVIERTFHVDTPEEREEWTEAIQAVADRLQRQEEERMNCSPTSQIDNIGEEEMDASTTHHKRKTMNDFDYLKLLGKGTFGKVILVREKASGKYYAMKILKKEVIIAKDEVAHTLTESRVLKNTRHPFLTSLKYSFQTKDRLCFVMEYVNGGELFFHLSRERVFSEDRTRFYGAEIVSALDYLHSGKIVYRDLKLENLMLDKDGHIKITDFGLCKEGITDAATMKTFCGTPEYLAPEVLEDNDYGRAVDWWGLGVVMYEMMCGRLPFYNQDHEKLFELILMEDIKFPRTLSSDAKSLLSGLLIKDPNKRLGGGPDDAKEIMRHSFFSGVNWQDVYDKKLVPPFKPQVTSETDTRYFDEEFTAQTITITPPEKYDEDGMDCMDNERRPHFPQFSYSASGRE
cdk4, sequence (P11802 whole entry): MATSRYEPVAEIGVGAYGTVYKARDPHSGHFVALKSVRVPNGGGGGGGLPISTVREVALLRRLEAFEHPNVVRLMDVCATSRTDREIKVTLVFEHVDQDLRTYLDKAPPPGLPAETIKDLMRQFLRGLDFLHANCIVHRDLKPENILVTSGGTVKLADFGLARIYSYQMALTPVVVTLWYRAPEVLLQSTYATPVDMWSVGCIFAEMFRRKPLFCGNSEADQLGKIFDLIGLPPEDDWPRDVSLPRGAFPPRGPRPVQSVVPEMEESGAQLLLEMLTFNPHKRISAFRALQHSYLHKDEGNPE
cdk4, sequence (P24385 whole entry partner): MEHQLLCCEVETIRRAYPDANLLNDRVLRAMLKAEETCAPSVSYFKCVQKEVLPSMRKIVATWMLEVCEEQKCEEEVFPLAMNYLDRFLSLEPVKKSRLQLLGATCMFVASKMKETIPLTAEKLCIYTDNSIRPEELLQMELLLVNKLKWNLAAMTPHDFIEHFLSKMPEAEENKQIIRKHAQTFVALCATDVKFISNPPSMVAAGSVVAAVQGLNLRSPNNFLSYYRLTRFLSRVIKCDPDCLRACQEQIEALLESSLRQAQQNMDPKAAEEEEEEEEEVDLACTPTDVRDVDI

Row | Compound | IC50 (AKT3 [1]; [3]) | IC50 (A2780 cell; [4]) | IC50 (AKT3 [2]; [5]) | IC50 (cdk4; [6]) | melting point | IC50 (CDC25B; [7]) | IC50 (cdk4) | IC50 (AKT3 [1]) | IC50 (A2780 cell; A2780, 72 h) | IC50 (CDC25B) | IC50 (AKT3 [2])
1 | Cn1c(=O)nc2n(C3CCCC3)nc(-c3ccc(-c4ccc(CN5CCC(N)CC5)cc4)o3)nc-2c1=O [Compound 37] | 34.4 nM | 67.5 nM | 51.8 nM |  |  |  |  |  |  |  | 
2 | Cn1c(=O)nc2n(C3CCCC3)nc(-c3ccc(-c4ccc(CNC(CO)(CO)CO)cc4)o3)nc-2c1=O [Compound 126] | 272 nM | 1110 nM | 80.2 nM | 78.3 nM | 241 °C | 93.8 nM |  |  |  |  | 
3 | Cn1c(=O)nc2n(C3CCN(S(N)(=O)=O)CC3)nc(-c3ccc(-c4cccc(Cl)c4)o3)nc-2c1=O [Compound 114] | 187 nM | 110 nM | 45.2 nM |  | > 250 °C | 15.2 nM |  |  |  |  | 
4 | Cn1c(=O)nc2n(C3CCCC3)nc(-c3ccc(-c4ccc(OCCN5CCOCC5)cc4)o3)nc-2c1=O [Compound 117] |  |  |  |  | 173 °C |  | 286 nM | 813 nM | 178 nM | 18.9 nM | 49.4 nM
5 | CC(C)n1nc(-c2ccc(-c3ccc(CN4CCOCC4)cc3)o2)nc2c(=O)n(C)c(=O)nc1-2 [Compound 78] | 139 nM | 79.8 nM | 57.9 nM |  |  | 11.3 nM |  |  |  |  | 
6 | Cn1c(=O)nc2n(C3CCCC3)nc(-c3ccc(-c4ccc(CN5CCN(S(N)(=O)=O)CC5)cc4)o3)nc-2c1=O [Compound 112] | 202 nM | 142 nM | 63.7 nM | 117 nM | > 250 °C | 19.8 nM |  |  |  |  | 
7 | Cn1nc(-c2ccc(-c3cccc(CN4CCOCC4)c3)o2)nc2c(=O)n(C)c(=O)nc1-2 [Compound 1] | 62.1 nM | 61.9 nM | 32.1 nM |  | 209.3 to 219.8 °C | < 1 nM |  |  |  |  | 
8 | Cn1nc(-c2ccc(-c3ccc(S(=O)(=O)N4CCOCC4)cc3)o2)nc2c(=O)n(C)c(=O)nc1-2 |  |  |  |  | 264.3 to 273.4 °C |  |  |  |  |  | 
9 | Cn1c(=O)nc2n(C3CCCC3)nc(-c3ccc(-c4cccc(CN5CCOCC5)c4)o3)nc-2c1=O [Compound 98] | 111 nM | 107 nM | 107 nM |  | 155 °C | 15.1 nM |  |  |  |  | 
10 | Cn1c(=O)nc2n(C3CCCC3)nc(-c3ccc(-c4ccc(CN5CCNCC5)cc4)o3)nc-2c1=O [Compound 105] | 98.2 nM | 54.5 nM | 115 nM |  | > 276.5 °C | 16.6 nM |  |  |  |  | 
11 | Cn1nc(-c2ccc(-c3cccc(CNS(C)(=O)=O)c3)o2)nc2c(=O)n(C)c(=O)nc1-2 [Compound 2] | 209 nM | 490 nM | 72.6 nM |  | 215.1 to 236.6 °C | 20.8 nM |  |  |  |  | 
12 | Cn1c(=O)nc2n(C3CCCC3)nc(-c3ccc(-c4ccc(CN5CCC(O)CC5)cc4)o3)nc-2c1=O [Compound 103] | 65.5 nM | 60.8 nM | 85.5 nM |  | > 250 °C | 16 nM |  |  |  |  | 
13 | Cn1c(=O)nc2n(C3CCCC3)nc(-c3ccc(-c4ccc(CN5CCOCC5)cc4)o3)nc-2c1=O [Compound 94] | 63.8 nM | 53 nM | 57.3 nM |  | 255 °C | 11.2 nM |  |  |  |  | 
14 | Cn1c(=O)nc2n(C3CCCC3)nc(-c3ccc(-c4ccc(S(=O)(=O)N5CCOCC5)cc4)o3)nc-2c1=O [Compound 93] | 471 nM | 52.8 nM | 53.6 nM |  | > 250 °C | 11 nM |  |  |  |  | 
15 | Cn1c(=O)nc2n(C3CCNCC3)nc(-c3ccc(-c4cccc(Cl)c4)o3)nc-2c1=O [Compound 96] | 3.41 nM | 10 nM | 62.1 nM |  | > 250 °C | 9.18 nM |  |  |  |  | 
16 | Cn1nc(-c2ccc(-c3cccc(Cl)c3)o2)nc2c(=O)n(C3CCN(Cc4ccccc4)CC3)c(=O)nc1-2 |  |  |  |  | 210.4 to 241 °C |  |  |  |  |  | 
17 | CN(CCO)Cc1ccc(-c2ccc(-c3nc4c(=O)n(C)c(=O)nc-4n(C4CCCC4)n3)o2)cc1 [Compound 107] | 95.7 nM | 60.8 nM | 39.5 nM |  | > 250 °C | 16 nM |  |  |  |  | 
18 | CONCc1ccc(-c2ccc(-c3nc4c(=O)n(C)c(=O)nc-4n(C4CCCC4)n3)o2)cc1 [Compound 115] | 74.8 nM | 46.9 nM | 48.1 nM |  | 140 °C | 13.2 nM |  |  |  |  | 
19 | CC(c1ccccc1)n1nc(-c2ccc(-c3cccc(Cl)c3)o2)nc2c(=O)n(C)c(=O)nc1-2 (stereo not drawn) [Compound 67] | 716 nM | 196 nM | 161 nM |  |  | 21.3 nM |  |  |  |  | 
20 | Cn1c(=O)nc2n(C3CCCC3)nc(-c3ccc(-c4ccc(CNCCO)cc4)o3)nc-2c1=O [Compound 113] | 34.8 nM | 45.1 nM | 32.5 nM |  | 240 °C | 14.2 nM |  |  |  |  | 
21 | Cn1c(=O)nc2n(C3CCCC3)nc(-c3ccc(-c4ccc(CN5CCN(CCO)CC5)cc4)o3)nc-2c1=O [Compound 106] | 102 nM | 70.3 nM | 84.3 nM |  | 175 °C | 15.6 nM |  |  |  |  | 
